Test results: patent US10105357B2, “Indication of antibiotic drugs for preparation of cancer inhibition pharmaceutical composition” (LAUNX BIOMEDICAL CO., LTD., priority 2014, dated 2018)
Counter-ions that a name gives are not always drawn. Like-named read-outs stand apart in the source and are kept apart here.

Legend:
Type in all cases: cell-based, human
cancer cell lines = test: Cell viability analysis (WST-1) on cancer cell lines; conditions: drug 10 μM, 72 hours, WST-1; Table 3
[1] = system: HI650 (Lung Adenocarcinoma); test: Cell viability analysis, lung cancer HI650; conditions: Homo sapiens, NCI-H1650, 72 h
[2] = system: A549 (Lung Adenocarcinoma); test: Cell viability analysis, lung cancer A549; conditions: Homo sapiens, A549, 72 h
[3] = system: AGS (Gastric Adenocarcinoma); test: Cell viability analysis, gastric cancer AGS; conditions: Homo sapiens, 72 h
[4] = system: MKN-45 (Gastric Adenocarcinoma); test: Cell viability analysis, gastric cancer MKN-45; conditions: Homo sapiens, MKN-45, 72 h
[5] = system: HepG2 (Hepatocellular Carcinoma); test: Cell viability analysis, hepatic cancer HepG2; conditions: Homo sapiens, HepG2, 72 h
[6] = system: LoVo (Colorectal Adenocarcinoma); test: Cell viability analysis, colon cancer LoVo; conditions: Homo sapiens, LoVo, 72 h, read-out: cell viability (survival rate), LoVo, drug 10 μM, 72 hours, WST-1, OD450 nm
[7] = system: A375 (Amelanotic Melanoma); test: Cell viability analysis, skin cancer A375; conditions: Homo sapiens, A-375, 72 h
[8] = system: HeLa (Cervix Adenocarcinoma); test: Cell viability analysis, cervical cancer HeLa; conditions: Homo sapiens, HeLa, 72 h
[9] = system: PC3 (p53−) (Prostate Adenocarcinoma); test: Cell viability analysis, prostate cancer PC3; conditions: Homo sapiens, 72 h
[10] = system: TSGH-8301 (Urinary Bladder Carcinoma); test: Cell viability analysis, bladder cancer TSGH-8301; conditions: Homo sapiens, 72 h
[11] = system: MCF7 (Mammary Gland, Adenocarcinoma); test: Cell viability analysis, breast cancer MCF7; conditions: Homo sapiens, MCF7, 72 h
[12] = system: HL-60 (Acute Promyelocytic Leukemia); test: Cell viability analysis, leukemia HL-60; conditions: Homo sapiens, HL-60, 72 h
[13] = read-out: cell viability (survival rate), H1650, drug 10 μM, 72 hours, WST-1, OD450 nm
[14] = read-out: cell viability (survival rate), A549, drug 10 μM, 72 hours, WST-1, OD450 nm
[15] = read-out: cell viability (survival rate), AGS, drug 10 μM, 72 hours, WST-1, OD450 nm
[16] = read-out: cell viability (survival rate), MKN-45, drug 10 μM, 72 hours, WST-1, OD450 nm
[17] = read-out: cell viability (survival rate), HepG2, drug 10 μM, 72 hours, WST-1, OD450 nm
[18] = read-out: cell viability (survival rate), A375, drug 10 μM, 72 hours, WST-1, OD450 nm
[19] = read-out: cell viability (survival rate), HeLa, drug 10 μM, 72 hours, WST-1, OD450 nm
[20] = read-out: cell viability (survival rate), PC3, drug 10 μM, 72 hours, WST-1, OD450 nm
[21] = read-out: cell viability (survival rate), TSGH, drug 10 μM, 72 hours, WST-1, OD450 nm
[22] = read-out: cell viability (survival rate), MCF7, drug 10 μM, 72 hours, WST-1, OD450 nm
[23] = read-out: cell viability (survival rate), HL-60, drug 10 μM, 72 hours, WST-1, OD450 nm
[24] = drug 10 μM, 72 hours, WST-1, OD450 nm, read-out: cell viability (survival rate), H1650
[25] = drug 10 μM, 72 hours, WST-1, OD450 nm, read-out: cell viability (survival rate), A549
[26] = drug 10 μM, 72 hours, WST-1, OD450 nm, read-out: cell viability (survival rate), AGS
[27] = drug 10 μM, 72 hours, WST-1, OD450 nm, read-out: cell viability (survival rate), MKN-45
[28] = drug 10 μM, 72 hours, WST-1, OD450 nm, read-out: cell viability (survival rate), HepG2
[29] = drug 10 μM, 72 hours, WST-1, OD450 nm, read-out: cell viability (survival rate), A375
[30] = drug 10 μM, 72 hours, WST-1, OD450 nm, read-out: cell viability (survival rate), HeLa
[31] = drug 10 μM, 72 hours, WST-1, OD450 nm, read-out: cell viability (survival rate), PC3
[32] = drug 10 μM, 72 hours, WST-1, OD450 nm, read-out: cell viability (survival rate), TSGH
[33] = drug 10 μM, 72 hours, WST-1, OD450 nm, read-out: cell viability (survival rate), MCF7
[34] = drug 10 μM, 72 hours, WST-1, OD450 nm, read-out: cell viability (survival rate), HL-60

| Compound | inhibition effect on different cancer cell lines (cancer cell lines) | viability at 10 µM [1, 13] | viability at 10 µM [2, 14] | viability at 10 µM [3, 15] | viability at 10 µM [4, 16] | viability at 10 µM [5, 17] | viability at 10 µM [6] | viability at 10 µM [7, 18] | viability at 10 µM [8, 19] | viability at 10 µM [9, 20] | viability at 10 µM [10, 21] | viability at 10 µM [11, 22] | viability at 10 µM [12, 23] | viability at 10 µM [1, 24] | viability at 10 µM [2, 25] | viability at 10 µM [3, 26] | viability at 10 µM [4, 27] | viability at 10 µM [5, 28] | viability at 10 µM [7, 29] | viability at 10 µM [8, 30] | further results |
| --- | --- | --- | --- | --- | --- | --- | --- | --- | --- | --- | --- | --- | --- | --- | --- | --- | --- | --- | --- | --- | --- |
| CC(NCCc1ccc(O)cc1)C(O)c1ccc(O)cc1 (centres unmarked) [Ritodrine hydrochloride (Yutopar), Ritodrine hydrochloride] | significant inhibition effect | 96.4% | 95.5% | 80.1% | 97.2% | 92.8% | 104% | 87.4% | 133% | 113% | 64.4% | 86.5% | 86% | – | – | – | – | – | – | – | – |
| N#CC(c1ccc(Cl)cc1)c1c(Cl)cc(-n2ncc(=O)[nH]c2=O)cc1Cl (centres unmarked) [Diclazuril] | significant inhibition effect | – | – | – | – | – | 78.4% | – | – | – | – | – | – | 104% | 42.7% | 76.3% | 97.9% | 99.3% | 84.5% | 76.1% | viability at 10 µM [9, 31]: 95.5%; viability at 10 µM [10, 32]: 103%; viability at 10 µM [11, 33]: 40.4%; viability at 10 µM [12, 34]: 70.2% |
| O=C1OC(CN2CCOCC2)CN1/N=C/c1ccc([N+](=O)[O-])o1 (centres unmarked) [Furaltadone HCl] | significant inhibition effect | 83.1% | 67.9% | 68.2% | 72.6% | 83.2% | 62.2% | 66% | 64% | 99.2% | 81.3% | 103% | 64.6% | – | – | – | – | – | – | – | – |
| CC1(C)S[C@@H]2[C@H](NC(=O)[C@H](NC(=O)N3CCN(S(C)(=O)=O)C3=O)c3ccccc3)C(=O)N2[C@H]1C(=O)O [Mezlocillin Sodium] | significant inhibition effect | 81% | 78% | 72.2% | 92.9% | 95.1% | 116% | 107% | 111% | 97.8% | 91.9% | 107% | 91.4% | – | – | – | – | – | – | – | – |
| NCC[C@H](O)C(=O)N[C@@H]1C[C@H](N)[C@@H](O[C@H]2O[C@H](CN)[C@@H](O)[C@H](O)[C@H]2O)[C@H](O)[C@H]1O[C@H]1O[C@H](CO)[C@@H](O)[C@H](N)[C@H]1O [Amikacin hydrate] | significant inhibition effect | – | – | – | – | – | 99% | – | – | – | – | – | – | 87.7% | 111% | 85.8% | 104% | 88.4% | 87.7% | 96.3% | viability at 10 µM [9, 31]: 102%; viability at 10 µM [10, 32]: 138%; viability at 10 µM [11, 33]: 81.4%; viability at 10 µM [12, 34]: 108% |
| Cc1cccc(C(C)c2cnc[nH]2)c1C (centres unmarked) [Medetomidine HCl] | significant inhibition effect | 49.8% | 73.7% | 108% | 37.4% | 91.9% | 79.4% | 59.7% | 78.4% | 65.6% | 104% | 72.3% | 84.5% | – | – | – | – | – | – | – | – |
| Cc1ncc([N+](=O)[O-])n1CC(C)O (centres unmarked) [Secnidazole (Flagentyl), Secnidazole] | significant inhibition effect | 46.8% | 69.2% | 78% | 77.2% | 99% | 85.4% | 117% | 124% | 81.6% | 52.1% | 81% | 97.2% | – | – | – | – | – | – | – | – |
| Nc1[nH]c(=O)ncc1F [Flucytosine (Ancobon), Flucytosine] | significant inhibition effect | 92.1% | 91.4% | 70.7% | 72.9% | 93.2% | 108% | 102% | 80.9% | 108% | 93.9% | 75.3% | 102% | – | – | – | – | – | – | – | – |
| O=C(NC(Cc1cc(=O)[nH]c2ccccc12)C(=O)O)c1ccc(Cl)cc1 (centres unmarked) [Rebamipide] | significant inhibition effect | 80.4% | 28% | 89.6% | 97.4% | 95.3% | 84.9% | 81.1% | 77.4% | 82.2% | 105% | 39.1% | 100% | – | – | – | – | – | – | – | – |
| NNC(=O)c1ccncc1 [Isoniazid (Tubizid), Isoniazid] | significant inhibition effect | – | – | – | – | – | 71% | – | – | – | – | – | – | 64.7% | 45.7% | 50.5% | 44.6% | 110% | 54.9% | 77.9% | viability at 10 µM [9, 31]: 39.6%; viability at 10 µM [10, 32]: 42.2%; viability at 10 µM [11, 33]: 44.7%; viability at 10 µM [12, 34]: 102% |
| CCCCCCCCCCCCCCCCCCCCCCO [Docosanol (Abreva), Docosanol] | significant inhibition effect | – | – | – | – | – | 89.4% | – | – | – | – | – | – | 69.3% | 44% | 40.6% | 52.4% | 83.6% | 84.6% | 76.9% | viability at 10 µM [9, 31]: 70.2%; viability at 10 µM [10, 32]: 54.8%; viability at 10 µM [11, 33]: 39.1%; viability at 10 µM [12, 34]: 116% |
